Patent US9920032B2, “Heterocyclic compounds useful as pim kinase inhibitors” (Incyte Corporation, priority 2015, dated 2018)

How the values were obtained:
Type in all cases: biochemical
[1] = biological target: Pim-1 (Homo sapiens (Human), UniProt P11309); test: Pim-1 kinase assay; settings: 1 mM ATP; read-out: PIM1 IC50
Summary of the method: (§1)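 Biotin-BAD peptide (0.05 μM) phosphorylated with 1 mM ATP by 2.5 pM Pim-1 or 1.25 pM Pim-3 in Tris pH 7.5/MgCl2/DTT buffer, 1 h at 25° C. EDTA stop; phospho-BAD (Ser112) antibody with streptavidin donor and Protein-A acceptor beads, 1 h dark at room temperature before AlphaScreen-type bead read.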

[2] = biological target: Pim-3 (Homo sapiens (Human), UniProt Q86V86); test: Pim-3 kinase assay; settings: 1 mM ATP; read-out: PIM3 IC50
Summary of the method: as §1

[3] = biological target: Pim-2 (Homo sapiens (Human), UniProt Q9P1W9); test: Pim-2 kinase assay; settings: 1 mM ATP; read-out: PIM2 IC50
Sequence of Pim-2 (Q9P1W9 whole entry): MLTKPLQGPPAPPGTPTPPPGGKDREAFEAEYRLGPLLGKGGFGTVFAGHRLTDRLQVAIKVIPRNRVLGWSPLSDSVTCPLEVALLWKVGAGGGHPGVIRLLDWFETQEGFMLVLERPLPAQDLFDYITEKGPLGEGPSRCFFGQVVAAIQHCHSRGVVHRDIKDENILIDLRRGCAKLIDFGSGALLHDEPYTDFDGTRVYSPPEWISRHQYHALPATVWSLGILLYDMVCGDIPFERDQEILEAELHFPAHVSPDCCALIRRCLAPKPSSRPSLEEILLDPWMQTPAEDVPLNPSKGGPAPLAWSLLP
Summary of the method: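 TR-FRET assay with 1 nM enzyme, 0.05 μM fluorescein-CREBtide and 1 mM ATP in Tris pH 7.5 buffer with MgCl2, DTT, BSA and Tween-20, run 2 h at 25° C. Stopped with EDTA and Tb-labelled anti-CREB pSer133 antibody, then read after 30 min at room temperature.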

Sequence of Pim-1 (P11309 whole entry): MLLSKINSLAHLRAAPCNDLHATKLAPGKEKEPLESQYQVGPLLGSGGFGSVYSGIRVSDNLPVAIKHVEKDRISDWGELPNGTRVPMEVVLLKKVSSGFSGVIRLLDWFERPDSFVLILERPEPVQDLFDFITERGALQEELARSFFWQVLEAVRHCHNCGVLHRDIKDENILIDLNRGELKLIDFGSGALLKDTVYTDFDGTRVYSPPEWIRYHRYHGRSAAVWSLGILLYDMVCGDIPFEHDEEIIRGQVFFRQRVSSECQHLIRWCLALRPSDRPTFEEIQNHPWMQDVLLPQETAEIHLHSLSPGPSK

| Compound | IC50 [1] [nM] | IC50 [2] [nM] | IC50 [3] [nM] |
| --- | --- | --- | --- |
| C[C@@H]1C[C@H](N)C[C@H](c2ccncc2NC(=O)c2ccc(F)c3cc(-c4c(F)cccc4C#N)cnc23)C1 [Example 15, N-{4-[(1R,3S,5S)-3-Amino-5-methylcyclohexyl]pyridin-3-yl}-3-(2-cyano-6-fluorophenyl)-5-fluoroquinoline-8-carboxamide] | ≤ 10 | ≤ 10 | ≤ 100 |
| C[C@@H]1C[C@H](N)C[C@H](c2ccncc2NC(=O)c2ccc(F)c3cc(N4CCCc5cccc(F)c54)cnc23)C1 [Example 137, N-(4-((1R,3S,5S)-3-Amino-5-methylcyclohexyl)pyridin-3-yl)-5′,8-difluoro-3,4-dihydro-2H-1,3′-biquinoline-8′-carboxamide] | ≤ 10 | ≤ 10 | ≤ 100 |
| C[C@@H]1C[C@H](N)C[C@H](c2ccncc2NC(=O)c2ccc(F)c3cc(N4CCCOCC4)cnc23)C1 [Example 102, N-(4-((1R,3S,5S)-3-Amino-5-methylcyclohexyl)pyridin-3-yl)-5-fluoro-3-(1,4-oxazepan-4-yl)quinoline-8-carboxamide] | ≤ 10 | ≤ 10 | ≤ 100 |
| COC(=O)N1CCN(c2cnc3c(C(=O)Nc4cnccc4[C@@H]4C[C@H](C)C[C@H](N)C4)ccc(F)c3c2)[C@@H](C)C1 [Example 88, (S)-Methyl 4-(8-(4-((1R,3S,5S)-3-amino-5-methylcyclohexyl)pyridin-3-ylcarbamoyl)-5-fluoroquinolin-3-yl)-3-methylpiperazine-1-carboxylate] | ≤ 10 | ≤ 10 | ≤ 100 |
| CCOC(=O)N1CCN(c2cnc3c(C(=O)Nc4cnccc4[C@@H]4C[C@H](C)C[C@H](N)C4)ccc(F)c3c2)CC1 [Example 168, Ethyl 4-(8-(4-((1R,3S,5S)-3-amino-5-methylcyclohexyl)pyridin-3-ylcarbamoyl)-5-fluoroquinolin-3-yl)piperazine-1-carboxylate] | ≤ 10 | ≤ 10 | 100 to 1000 |
| C[C@@H]1C[C@H](N)C[C@H](c2ccncc2NC(=O)c2ccc(F)c3cc(N4CCOC[C@@H]4C)cnc23)C1 [Example 33, N-(4-((1R,3S,5S)-3-Amino-5-methylcyclohexyl)pyridin-3-yl)-5-fluoro-3-((S)-3-methylmorpholino)quinoline-8-carboxamide] | ≤ 10 | ≤ 10 | ≤ 100 |
| C[C@@H]1C[C@H](N)C[C@H](c2ccncc2NC(=O)c2ccc(F)c3cc(N4CC[C@H]4C)cnc23)C1 [Example 167, N-(4-((1R,3S,5S)-3-Amino-5-methylcyclohexyl)pyridin-3-yl)-5-fluoro-3-((R)-2-methylazetidin-1-yl)quinoline-8-carboxamide] | ≤ 10 | ≤ 10 | ≤ 100 |
| C[C@@H]1C[C@H](N)C[C@H](c2ccncc2NC(=O)c2ccc(F)c3cc(N4CCn5cnnc5C4)cnc23)C1 [Example 134, N-(4-((1R,3S,5S)-3-Amino-5-methylcyclohexyl)pyridin-3-yl)-3-(5,6-dihydro-[1,2,4]triazolo[4,3-a]pyrazin-7(8H)-yl)-5-fluoroquinoline-8-carboxamide] | ≤ 10 | ≤ 10 | 100 to 1000 |
| C[C@@H]1C[C@H](N)C[C@H](c2ccncc2NC(=O)c2cccc3cc(N(C)CC(F)F)cnc23)C1 [Example 72, N-(4-((1R,3S,5S)-3-Amino-5-methylcyclohexyl)pyridin-3-yl)-3-((2,2-difluoroethyl)(methyl)amino)quinoline-8-carboxamide] | ≤ 10 | ≤ 10 | 100 to 1000 |
| C[C@@H]1C[C@H](N)C[C@H](c2ccncc2NC(=O)c2ccc(F)c3cc(N4CCOCC4)cnc23)C1 [Example 10, N-{4-[(1R,3S,5S)-3-Amino-5-methylcyclohexyl]pyridin-3-yl}-5-fluoro-3-morpholin-4-ylquinoline-8-carboxamide] | ≤ 10 | ≤ 10 | 100 to 1000 |
| C[C@@H]1C[C@H](N)C[C@H](c2ccncc2NC(=O)c2cccc3cc(N4CCCCC4C(F)F)cnc23)C1 (stereo partly drawn) [Example 71, N-(4-((1R,3S,5S)-3-Amino-5-methylcyclohexyl)pyridin-3-yl)-3-(2-(difluoromethyl)piperidin-1-yl)quinoline-8-carboxamide] | ≤ 10 | ≤ 10 | 100 to 1000 |
| C[C@@H]1C[C@H](N)C[C@H](c2ccncc2NC(=O)c2ccc(F)c3cc(N4C5CCC4CC(O)C5)cnc23)C1 (stereo partly drawn) [Example 98, N-(4-((1R,3S,5S)-3-Amino-5-methylcyclohexyl)pyridin-3-yl)-5-fluoro-3-(3-hydroxy-8-azabicyclo[3.2.1]octan-8-yl)quinoline-8-carboxamide] | ≤ 10 | ≤ 10 | ≤ 100 |
| C[C@@H]1C[C@H](N)C[C@H](c2ccncc2NC(=O)c2ccc(F)c3cc(N(C)c4ccccc4F)cnc23)C1 [Example 97, N-(4-((1R,3S,5S)-3-Amino-5-methylcyclohexyl)pyridin-3-yl)-5-fluoro-3-((2-fluorophenyl)(methyl)amino)quinoline-8-carboxamide] | ≤ 10 | ≤ 10 | ≤ 100 |
| CCN(C)c1cnc2c(C(=O)Nc3cnccc3[C@@H]3C[C@H](C)C[C@H](N)C3)ccc(F)c2c1 [Example 20, N-(4-((1R,3S,5S)-3-Amino-5-methylcyclohexyl)pyridin-3-yl)-3-(ethyl(methyl)amino)-5-fluoroquinoline-8-carboxamide] | ≤ 10 | ≤ 10 | ≤ 100 |
| C[C@@H]1C[C@H](N)C[C@H](c2ccncc2NC(=O)c2ccc(F)c3cc(N4C[C@@H](O)C[C@H]4C)cnc23)C1 [Example 164, N-(4-((1R,3S,5S)-3-Amino-5-methylcyclohexyl]pyridin-3-yl}-5-fluoro-3-[(2R,4S)-4-hydroxy-2-methylpyrrolidin-1-yl]quinoline-8-carboxamide] | ≤ 10 | ≤ 10 | ≤ 100 |
| CO[C@H]1CCN(c2cnc3c(C(=O)Nc4cnccc4[C@@H]4C[C@H](C)C[C@H](N)C4)ccc(F)c3c2)[C@H](C)C1 [Example 159, N-(4-((1R,3S,5S)-3-Amino-5-methylcyclohexyl)pyridin-3-yl)-5-fluoro-3-((2R,4S)-4-methoxy-2-methylpiperidin-1-yl)quinoline-8-carboxamide] | ≤ 10 | ≤ 10 | ≤ 100 |
| C[C@@H]1C[C@H](N)C[C@H](c2ccncc2NC(=O)c2ccc(F)c3cc(C4CCOCC4)cnc23)C1 [Example 31, N-{4-[(1R,3S,5S)-3-Amino-5-methylcyclohexyl]pyridin-3-yl}-5-fluoro-3-(tetrahydro-2H-pyran-4-yl)quinoline-8-carboxamide] | ≤ 10 | ≤ 10 | 100 to 1000 |
| CC1CCC(C)N1c1cnc2c(C(=O)Nc3cnccc3[C@@H]3C[C@H](C)C[C@H](N)C3)ccc(F)c2c1 (stereo partly drawn) [Example 36, N-(4-((1R,3S,5S)-3-Amino-5-methylcyclohexyl)pyridin-3-yl)-3-(2,5-dimethylpyrrolidin-1-yl)-5-fluoroquinoline-8-carboxamide] | ≤ 10 | 10 to 50 | 100 to 1000 |
| COC1(C)CN(c2cnc3c(C(=O)Nc4cnccc4[C@@H]4C[C@H](C)C[C@H](N)C4)ccc(F)c3c2)C1 [Example 118, N-(4-((1R,3S,5S)-3-Amino-5-methylcyclohexyl)pyridin-3-yl)-5-fluoro-3-(3-methoxy-3-methylazetidin-1-yl)quinoline-8-carboxamide] | ≤ 10 | ≤ 10 | ≤ 100 |
| C[C@@H]1C[C@H](N)C[C@H](c2ccncc2NC(=O)c2ccc(F)c3cc(N4C5CCC4CC5)cnc23)C1 [Example 136, N-(4-((1R,3S,5S)-3-Amino-5-methylcyclohexyl)pyridin-3-yl)-3-(7-azabicyclo[2.2.1]heptan-7-yl)-5-fluoroquinoline-8-carboxamide] | ≤ 10 | ≤ 10 | ≤ 100 |
| COC1CCCN(c2cnc3c(C(=O)Nc4cnccc4[C@@H]4C[C@H](C)C[C@H](N)C4)ccc(F)c3c2)CC1 (stereo partly drawn) [Example 101, N-(4-((1R,3S,5S)-3-Amino-5-methylcyclohexyl)pyridin-3-yl)-5-fluoro-3-(4-methoxyazepan-1-yl)quinoline-8-carboxamide] | ≤ 10 | ≤ 10 | ≤ 100 |
| C[C@@H]1C[C@H](N)C[C@H](c2ccncc2NC(=O)c2ccc(F)c3cc(NCCF)cnc23)C1 [Example 26, N-{4-[(1R,3S,5S)-3-Amino-5-methylcyclohexyl]pyridin-3-yl}-5-fluoro-3-[(2-fluoroethyl)amino]quinoline-8-carboxamide] | ≤ 10 | ≤ 10 | ≤ 100 |
| Cc1n[nH]cc1-c1cnc2c(C(=O)Nc3cnccc3[C@@H]3C[C@H](C)C[C@H](N)C3)ccc(F)c2c1 [Example 65, N-(4-((1R,3S,5S)-3-amino-5-methylcyclohexyl)pyridin-3-yl)-5-fluoro-3-(3-methyl-1H-pyrazol-4-yl)quinoline-8-carboxamide] | ≤ 10 | ≤ 10 | 100 to 1000 |
| COc1ccc(N(C)c2cnc3c(C(=O)Nc4cnccc4[C@@H]4C[C@H](C)C[C@H](N)C4)ccc(F)c3c2)cc1 [Example 148, N-(4-((1R,3S,5S)-3-Amino-5-methylcyclohexyl)pyridin-3-yl)-5-fluoro-3-((4-methoxyphenyl)(methyl)amino)quinoline-8-carboxamide] | ≤ 10 | ≤ 10 | ≤ 100 |
